Bridge positions count the residues as written; N and C are the ends. Square brackets hold non-standard residues; d marks the D form. Peptide text beside a SMILES is read from it. * marks the point of attachment. Phe(4-COOH) = N[C@@H](Cc1ccc(C(=O)O)cc1)C(=O)O; Bip = N[C@@H](Cc1ccc(-c2ccccc2)cc1)C(=O)O; Phe(3-Me) = Cc1cccc(C[C@H](N)C(=O)O)c1; 4Pal = N[C@@H](Cc1ccncc1)C(=O)O; Carboxymethyl = O=C(O)C*; NMeA = CN[C@@H](C)C(=O)O; Dap = NC[C@H](N)C(=O)O
target: T1, PE-labeled human PD-L1-Ig binding to Jurkat cell line over-expressing human PD-1 (Jurkat-PD-1) (Homo sapiens, UniProt Q15116); assay: Jurkat-PD-1 Cell Binding High-Content Screening Assay (CBA): Method 1; conditions: Jurkat-hPD-1 cells, PE-labeled PD-L1-Ig 20 nM final; read-out: Jurkat HPDL1 PD1 IC50 (uM) (Method 1)
T1 construct: expressed in transfected cells; host or cells: Jurkat
T1 sequence (Q15116 25-288): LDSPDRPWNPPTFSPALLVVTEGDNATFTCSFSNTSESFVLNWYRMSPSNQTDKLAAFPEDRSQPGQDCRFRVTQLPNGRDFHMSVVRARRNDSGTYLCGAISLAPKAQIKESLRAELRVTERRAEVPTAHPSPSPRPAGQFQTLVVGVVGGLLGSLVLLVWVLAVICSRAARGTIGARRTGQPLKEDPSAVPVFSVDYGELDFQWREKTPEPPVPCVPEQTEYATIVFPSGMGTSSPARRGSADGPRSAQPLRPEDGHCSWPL

SMILES | IC50 [µM]
CC(C)C[C@@H]1NC(=O)[C@H](Cc2c[nH]c3ccccc23)NC(=O)[C@H](CC(=O)O)NC(=O)[C@H](Cc2ccc(OCC(=O)O)cc2)NC(=O)[C@H](Cc2ccncc2)NC(=O)CSC[C@@H](C(=O)NCC(N)=O)NC(=O)[C@H](CO)NC(=O)[C@H](C(C)C)NC(=O)[C@H](CC(C)C)NC(=O)[C@H](CC(N)=O)NC(=O)[C@@H](CC(C)C)NC(=O)[C@H](C)N(C)C(=O)[C@H](C(C)C)NC(=O)[C@H](Cc2ccc(-c3ccccc3)cc2)NC1=O [Compound 1551] ({CH2CO}-[4Pal]Y(Carboxymethyl)DWL[Bip]V[NMeA][dL]NLVSCG-NH2; thioether N-14) | 0.01
Cc1cccc(C[C@@H]2NC(=O)[C@H](CC(=O)O)NC(=O)[C@H](Cc3ccc(OCC(=O)O)cc3)NC(=O)[C@H](Cc3ccncc3)NC(=O)CSC[C@@H](C(=O)NCC(N)=O)NC(=O)[C@H](CO)NC(=O)[C@H](C(C)C)NC(=O)[C@H](CC(C)C)NC(=O)[C@H](CC(N)=O)NC(=O)[C@@H](CC(C)C)NC(=O)[C@H](C)N(C)C(=O)[C@H](C(C)C)NC(=O)[C@H](Cc3ccc(-c4ccccc4)cc3)NC(=O)[C@H](CC(C)C)NC2=O)c1 [Compound 1557] ({CH2CO}-[4Pal]Y(Carboxymethyl)D[Phe(3-Me)]L[Bip]V[NMeA][dL]NLVSCG-NH2; thioether N-14) | 0.01
CC(C)C[C@@H]1NC(=O)[C@H](Cc2c[nH]c3ccccc23)NC(=O)[C@H](CC(=O)O)NC(=O)[C@H](Cc2ccc(C(=O)O)cc2)NC(=O)[C@H](Cc2ccc(OCC(=O)O)cc2)NC(=O)CSC[C@@H](C(=O)N[C@@H](C)C(N)=O)NC(=O)[C@H](CO)NC(=O)[C@H](C(C)C)NC(=O)[C@H](CC(C)C)NC(=O)[C@H](CC(N)=O)NC(=O)[C@@H](C)NC(=O)[C@H](C)N(C)C(=O)[C@H](C(C)C)NC(=O)[C@H](Cc2ccc(-c3ccccc3)cc2)NC1=O [Compound 1560] ({CH2CO}-Y(Carboxymethyl)[Phe(4-COOH)]DWL[Bip]V[NMeA][dA]NLVSCA-NH2; thioether N-14) | 0.02
CC(C)C[C@@H]1NC(=O)[C@H](Cc2c[nH]c3ccccc23)NC(=O)[C@H](CC(=O)O)NC(=O)[C@H](Cc2ccncc2)NC(=O)[C@H](CN)NC(=O)CSC[C@@H](C(=O)N[C@@H](C)C(N)=O)NC(=O)[C@H](CO)NC(=O)[C@H](C(C)C)NC(=O)[C@H](CC(C)C)NC(=O)[C@H](CC(N)=O)NC(=O)[C@@H](C)NC(=O)[C@H](C)N(C)C(=O)[C@H](C(C)C)NC(=O)[C@H](Cc2ccc(-c3ccccc3)cc2)NC1=O [Compound 1561] ({CH2CO}-[Dap][4Pal]DWL[Bip]V[NMeA][dA]NLVSCA-NH2; thioether N-14) | 0.03

Other lines, results leading:

IC50 [µM] | SMILES
0.02 | CC(C)C[C@@H]1NC(=O)[C@H](Cc2c[nH]c3ccccc23)NC(=O)[C@H](CC(=O)O)NC(=O)[C@H](Cc2ccc(OCC(=O)O)cc2)NC(=O)[C@H](Cc2ccncc2)NC(=O)CSC[C@@H](C(=O)N[C@@H](C)C(N)=O)NC(=O)[C@H](CO)NC(=O)[C@H](C(C)C)NC(=O)[C@H](CC(C)C)NC(=O)[C@H](CC(N)=O)NC(=O)[C@@H](C)NC(=O)[C@H](C)N(C)C(=O)[C@H](C(C)C)NC(=O)[C@H](Cc2ccc(-c3ccccc3)cc2)NC1=O [Compound 1563] ({CH2CO}-[4Pal]Y(Carboxymethyl)DWL[Bip]V[NMeA][dA]NLVSCA-NH2; thioether N-14)
0.01 | CC(C)C[C@@H]1NC(=O)[C@H](Cc2c[nH]c3ccccc23)NC(=O)[C@H](CC(=O)O)NC(=O)[C@H](Cc2ccncc2)NC(=O)[C@H](Cc2ccc(OCC(=O)O)cc2)NC(=O)CSC[C@@H](C(=O)N[C@@H](C)C(N)=O)NC(=O)[C@H](CO)NC(=O)[C@H](C(C)C)NC(=O)[C@H](CC(C)C)NC(=O)[C@H](CC(N)=O)NC(=O)[C@@H](C)NC(=O)[C@H](C)N(C)C(=O)[C@H](C(C)C)NC(=O)[C@H](Cc2ccc(-c3ccccc3)cc2)NC1=O [Compound 1564] ({CH2CO}-Y(Carboxymethyl)[4Pal]DWL[Bip]V[NMeA][dA]NLVSCA-NH2; thioether N-14)
